ChEMBL document CHEMBL1151410, “Plant anticancer agents. XXII. Isolation of a phorbol diester and its delta 5,6-7 beta-hydroperoxide derivative from Ostodes paniculata” (1983)
Converted amounts (≈) assume the structure as drawn.

System: P388
Test: Cytotoxicity against mouse P388 cells
Type: functional
Details: read-out: ED50 (the source's name)

CCCCCCCC/C=C/C(=O)O[C@@H]1[C@@H](C)[C@@]2(O)[C@H]([C@@H]3C(C)(C)[C@]13OC(C)=O)[C@@H](OO)C(CO)=C[C@]1(O)C(=O)C(C)=C[C@@H]21 [OSTODIN]
EC50: 0.055 µg/mL (≈ 0.0909 µM)
